Measured values as given in patent US5935951A, “1-acyl-4-aliphatylaminopiperidine compounds” (Novartis Finance Corporation, priority 1994, dated 1999).
pIC50: −log10 of the molar value. Counter-ions that a name gives are not always drawn.

What follows are compounds tested against T1, 3H-substance P binding to the bovine retina (Bos taurus, UniProt F1MIX5) (assay: radioreceptor assay: binding of 3H-substance P to the bovine retina (according to H. Bittiger)). Details: in vitro, read-out: in vitro values: inhibition of the binding of 3H-substance P to the bovine retina.
T1 construct: from tissue; host or cells: bovine retina
T1 sequence (F1MIX5 1-407): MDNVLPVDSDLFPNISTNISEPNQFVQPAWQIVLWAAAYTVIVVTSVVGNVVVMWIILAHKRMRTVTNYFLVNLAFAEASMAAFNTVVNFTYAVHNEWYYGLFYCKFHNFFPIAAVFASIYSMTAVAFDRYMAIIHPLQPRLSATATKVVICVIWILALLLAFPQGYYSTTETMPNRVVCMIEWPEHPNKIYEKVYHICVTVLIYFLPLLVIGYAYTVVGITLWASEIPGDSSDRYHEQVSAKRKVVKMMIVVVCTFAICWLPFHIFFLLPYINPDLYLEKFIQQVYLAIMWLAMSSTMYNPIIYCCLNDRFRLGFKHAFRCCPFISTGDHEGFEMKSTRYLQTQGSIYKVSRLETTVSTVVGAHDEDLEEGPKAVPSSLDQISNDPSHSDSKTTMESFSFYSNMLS

`NC(=O)CN[C@H]1CCN(C(=O)c2cc(C(F)(F)F)cc(C(F)(F)F)c2)[C@H](Cc2ccccc2)C1` [Example 2, (2R,4S)-2-[2-Benzyl-1-(3,5-bistrifluoromethylbenzoyl)piperidin-4-ylamino]-acetamide hydrochloride] and `CN(C)CCCOC(=O)N[C@H]1CCN(C(=O)c2cc(C(F)(F)F)cc(C(F)(F)F)c2)[C@H](Cc2ccccc2)C1` [16 (2nd compound), 3-dimethylaminopropyl (2R,4S)-N-[2-benzyl-1-(3,5-bistrifluoromethylbenzoyl)piperidin-4-yl]carbamate] are within 0.2 log units of each other in pIC50: 8.00 for the first, 7.96 for the second.

`CCNC(=O)N[C@H]1CCN(C(=O)c2cc(C(F)(F)F)cc(C(F)(F)F)c2)[C@H](Cc2ccc(Cl)cc2)C1` [45 (c), (2R,4S)-1-[1-(3,5-bistrifluoromethylbenzoyl)-2-(4-chlorobenzyl)piperdin-4-yl]-3-ethylurea] and `CCCC(=O)N[C@H]1CCN(C(=O)c2cc(C(F)(F)F)cc(C(F)(F)F)c2)[C@H](Cc2ccc(Cl)cc2)C1` [Example 28, (2R,4S)-N-[1-(3,5-Bistrifluoromethylbenzoyl)-2-(4-chlorobenzyl)piperidin-4-yl]-butyramide] are within 0.2 log units of each other in pIC50: 8.12 for the first, 7.96 for the second.

`O=C(NC1CCCCC1)N[C@H]1CCN(C(=O)c2cc(C(F)(F)F)cc(C(F)(F)F)c2)[C@H](Cc2ccccc2)C1` [Example 45 (f), (2R,4S)-1-[2-benzyl-1-(3,5-bistrifluoromethylbenzoyl)piperidin-4-yl]-3-cyclohexylurea] was tested, and the pIC50 was 8.05.
